Like-named read-outs stand apart in the source and are kept apart here.
Tests used:
[1] = target: Mcl-1 protein (UniProtKB primary accession number: Q07820) (Homo sapiens, UniProt Q07820); assay: Inhibition of Mcl-1 by fluorescence polarisation, Method 1; type: binding; details: fluorescence polarisation test; Method 2 values are underlined in the patent (underlining not visible here); read-out: IC50 (M) Mcl-1 FP
Summary of the method: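 Buffer of 10 mM HEPES pH 7.4 with 150 mM NaCl and 0.05% Tween 20 held 5 nM Mcl-1 and 1 nM fluorescein-tagged ligand (final). Compounds were tested as 11-point serial dilutions at 5% final DMSO, and binding was read by FP.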

[2] = test system: H929 multiple myeloma tumour line; assay: In vitro cytotoxicity, Microculture Tetrazolium Assay; type: cell-based; details: H929 cells, 48 hours exposure, MTT, read-out: IC50 (μM) MTT H929
Experimental: The cytotoxicity studies were carried out on the H929 multiple myeloma tumour line.
The cells are distributed onto microplates and exposed to the test compounds for 48 hours.

Sequence of Mcl-1 protein (Q07820 whole entry): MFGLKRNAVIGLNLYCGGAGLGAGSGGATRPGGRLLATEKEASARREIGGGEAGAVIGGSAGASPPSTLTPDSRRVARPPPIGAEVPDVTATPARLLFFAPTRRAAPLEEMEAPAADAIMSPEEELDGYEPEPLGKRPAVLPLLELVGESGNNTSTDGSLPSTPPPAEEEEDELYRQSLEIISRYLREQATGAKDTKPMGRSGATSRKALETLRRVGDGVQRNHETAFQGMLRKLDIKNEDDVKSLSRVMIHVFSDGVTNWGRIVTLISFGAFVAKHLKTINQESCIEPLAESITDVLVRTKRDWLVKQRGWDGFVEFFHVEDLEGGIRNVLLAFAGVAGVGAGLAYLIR

| IC50 [1] | SMILES | IC50 ([2]; Homo sapiens, NCI-H929, 48 h) | IC50 [2] |
| --- | --- | --- | --- |
| 6.5e-09 M | COc1ccccc1CC(Oc1ncnc2sc(-c3ccco3)c(-c3ccc(OCCN(C)C)c(Cl)c3C)c12)C(=O)O [Example 320, (2R)-2-{[(5Sa)-5-{3-chloro-4-[2-(dimethylamino)ethoxy]-2-methylphenyl}-6-(furan-2-yl)thieno[2,3-d]pyrimidin-4-yl]oxy}-3-(2-methoxyphenyl)propanoic acid] | 0.471 µM |  |
| 4.3e-09 M | CCN1CCN(CCOc2ccc(-c3c(-c4ccco4)sc4ncnc(OC(Cc5ccccc5OC)C(=O)O)c34)c(C)c2Cl)CC1 [Example 322, (2R)-2-{[(5Sa)-5-{3-chloro-4-[2-(4-ethylpiperazin-1-yl)ethoxy]-2-methylphenyl}-6-(furan-2-yl)thieno[2,3-d]pyrimidin-4-yl]oxy}-3-(2-methoxyphenyl)propanoic acid] | 0.113 µM |  |
| 1.5e-08 M | COc1ccccc1CC(Oc1ncnc2sc(-c3ccco3)c(-c3ccc(OCCN4CCN(C(C)C)CC4)c(Cl)c3C)c12)C(=O)O [Example 324, (2R)-2-{[(5Sa)-5-(3-chloro-2-methyl-4-{2-[4-(propan-2-yl)piperazin-1-yl]ethoxy}phenyl)-6-(furan-2-yl)thieno[2,3-d]pyrimidin-4-yl]oxy}-3-(2-methoxyphenyl)propanoic acid] | 0.254 µM |  |
| 5e-09 M | COc1ccccc1CC(Oc1ncnc2sc(-c3ccco3)c(-c3ccc(OCCN4CCN(CC(F)F)CC4)c(Cl)c3C)c12)C(=O)O [Example 328, (2R)-2-{[(5Sa)-5-(3-chloro-4-{2-[4-(2,2-difluoroethyl)piperazin-1-yl]ethoxy}-2-methylphenyl)-6-(furan-2-yl)thieno[2,3-d]pyrimidin-4-yl]oxy}-3-(2-methoxyphenyl)propanoic acid] | 3.03 µM |  |
| 6e-08 M | COc1ccccc1CC(Oc1ncnc2sc(-c3ccco3)c(-c3ccc(OCCN4CCN(Cc5ccccc5)CC4)c(Cl)c3C)c12)C(=O)O [Example 329, (2R)-2-{[(5Sa)-5-{4-[2-(4-benzylpiperazin-1-yl)ethoxy]-3-chloro-2-methylphenyl}-6-(furan-2-yl)thieno[2,3-d]pyrimidin-4-yl]oxy}-3-(2-methoxyphenyl)propanoic acid] | 3.31 µM |  |
| 8.3e-09 M | COCCN1CCN(CCOc2ccc(-c3c(-c4ccco4)sc4ncnc(OC(Cc5ccccc5OC)C(=O)O)c34)c(C)c2Cl)CC1 [Example 330, (2R)-2-{[(5Sa)-5-(3-chloro-4-{2-[4-(2-methoxyethyl)piperazin-1-yl]ethoxy}-2-methylphenyl)-6-(furan-2-yl)thieno[2,3-d]pyrimidin-4-yl]oxy}-3-(2-methoxyphenyl)propanoic acid] | 1.17 µM |  |
| 6e-09 M | CNCCOc1ccc(-c2c(-c3ccco3)sc3ncnc(OC(Cc4ccccc4OC)C(=O)O)c23)c(C)c1Cl [Example 331, (2R)-2-{[(5Sa)-5-{3-chloro-2-methyl-4-[2-(methylamino)ethoxy]phenyl}-6-(furan-2-yl)thieno[2,3-d]pyrimidin-4-yl]oxy}-3-(2-methoxyphenyl)propanoic acid] | 0.394 µM |  |
| 1.2e-08 M | CCc1c(-c2c(-c3ccco3)sc3ncnc(OC(Cc4ccccc4OC)C(=O)O)c23)ccc(OCCN2CCN(C)CC2)c1Cl [Example 335, (2R)-2-{[(5Sa)-5-{3-chloro-2-ethyl-4-[2-(4-methylpiperazin-1-yl)ethoxy]phenyl}-6-(furan-2-yl)thieno[2,3-d]pyrimidin-4-yl]oxy}-3-(2-methoxyphenyl)propanoic acid] | 0.217 µM |  |
| 3.8e-08 M | COc1ccccc1C[C@@H](Oc1ncnc2sc(-c3ccco3)c(-c3ccc(OCCN4CCN(C)CC4)c(Cl)c3F)c12)C(=O)O [Example 337, (2R)-2-{[5-{3-chloro-2-fluoro-4-[2-(4-methylpiperazin-1-yl)ethoxy]phenyl}-6-(furan-2-yl)thieno[2,3-d]pyrimidin-4-yl]oxy}-3-(2-methoxyphenyl)propanoic acid] | 1.87 µM |  |
| 3e-08 M | Cc1c(-c2c(-c3ccco3)sc3ncnc(OC(Cc4ccccc4OC(F)F)C(=O)O)c23)ccc(OCCN2CCN(C)CC2)c1Cl [Example 338, (2R)-2-{[(5Sa)-5-{3-chloro-2-methyl-4-[2-(4-methylpiperazin-1-yl)ethoxy]phenyl}-6-(furan-2-yl)thieno[2,3-d]pyrimidin-4-yl]oxy}-3-[2-(difluoromethoxy)phenyl]propanoic acid] | 1.04 µM |  |
| 3.5e-08 M | Cc1c(-c2c(-c3ccco3)sc3ncnc(OC(Cc4ccccc4F)C(=O)O)c23)ccc(OCCN2CCN(C)CC2)c1Cl [Example 341, (2S)-2-{[(5Ra)-5-{3-chloro-2-methyl-4-[2-(4-methylpiperazin-1-yl)ethoxy]phenyl}-6-(furan-2-yl)thieno[2,3-d]pyrimidin-4-yl]oxy}-3-(2-fluorophenyl)propanoic acid] |  | 0.706 µM |
| 1.6e-08 M | COc1ccc(C)cc1CC(Oc1ncnc2sc(-c3ccco3)c(-c3ccc(OCCN4CCN(C)CC4)c(Cl)c3C)c12)C(=O)O [Example 344, (2R)-2-{[(5Sa)-5-{3-chloro-2-methyl-4-[2-(4-methylpiperazin-1-yl)ethoxy]phenyl}-6-(furan-2-yl)thieno[2,3-d]pyrimidin-4-yl]oxy}-3-(2-methoxy-5-methylphenyl)propanoic acid] | 0.22 µM |  |
| 8.6e-09 M | COc1ccc(F)cc1CC(Oc1ncnc2sc(-c3ccco3)c(-c3ccc(OCCN4CCN(C)CC4)c(Cl)c3C)c12)C(=O)O [Example 345, (2R)-2-{[(5Sa)-5-{3-chloro-2-methyl-4-[2-(4-methylpiperazin-1-yl)ethoxy]phenyl}-6-(furan-2-yl)thieno[2,3-d]pyrimidin-4-yl]oxy}-3-(5-fluoro-2-methoxyphenyl)propanoic acid] | 0.322 µM |  |
| 1.7e-08 M | COc1cc(F)ccc1CC(Oc1ncnc2sc(-c3ccco3)c(-c3ccc(OCCN4CCN(C)CC4)c(Cl)c3C)c12)C(=O)O [Example 346, (2R)-2-{[(5Sa)-5-{3-chloro-2-methyl-4-[2-(4-methylpiperazin-1-yl)ethoxy]phenyl}-6-(furan-2-yl)thieno[2,3-d]pyrimidin-4-yl]oxy}-3-(4-fluoro-2-methoxyphenyl)propanoic acid] | 0.063 µM |  |
| 1.4e-08 M | Cc1cccc(C[C@@H](Oc2ncnc3sc(-c4ccco4)c(-c4ccc(OCCN5CCN(C)CC5)c(Cl)c4C)c23)C(=O)O)c1 [Example 347, (2R)-2-{[(5Sa)-5-{3-chloro-2-methyl-4-[2-(4-methylpiperazin-1-yl)ethoxy]phenyl}-6-(furan-2-yl)thieno[2,3-d]pyrimidin-4-yl]oxy}-3-(3-methylphenyl)propanoic acid] |  | 0.25 µM |
| 2.1e-08 M | Cc1c(-c2c(-c3ccco3)sc3ncnc(OC(Cc4cccc(F)c4)C(=O)O)c23)ccc(OCCN2CCN(C)CC2)c1Cl [Example 348, (2R)-2-{[(5Sa)-5-{3-chloro-2-methyl-4-[2-(4-methylpiperazin-1-yl)ethoxy]phenyl}-6-(furan-2-yl)thieno[2,3-d]pyrimidin-4-yl]oxy}-3-(3-fluorophenyl)propanoic acid] | 0.346 µM |  |
| 2.7e-08 M | COc1cccc(CC(Oc2ncnc3sc(-c4ccco4)c(-c4ccc(OCCN5CCN(C)CC5)c(Cl)c4C)c23)C(=O)O)c1 [Example 349, (2R)-2-{[(5Sa)-5-{3-chloro-2-methyl-4-[2-(4-methylpiperazin-1-yl)ethoxy]phenyl}-6-(furan-2-yl)thieno[2,3-d]pyrimidin-4-yl]oxy}-3-(3-methoxyphenyl)propanoic acid] | 2.46 µM |  |

Source: US9670227B2, “Thienopyrimidine derivatives, a process for their preparation and pharmaceutical compositions containing them” (LES LABORATOIRES SERVIER, priority 2013, dated 2017)
